Test results from PMC9975698, “Hyperoside alleviates toxicity of β-amyloid via endoplasmic reticulum-mitochondrial calcium signal transduction cascade in APP/PS1 double transgenic Alzheimer's disease mice” (Redox Biology, 2023).

Assays:
HT22 cells [1] = assay: Cytoplasmic calcium dynamics (FLIPR Calcium 6); type: cell-based
Protocol: Intracellular Ca^2+ dynamics were determined using the FLIPR Calcium 6 Assay Kit (Molecular Devices) according to the manufacturer's instructions. Briefly, HT22 was housed at 4 × 10^4 cells per well in a black-walled and clear-bottom 96 multi-well plate (Costar, MA, USA) and treated with Calcium 6 reagent for 1 h.

APP/PS1 mice [2] = assay: Dot blot of Aβ forms in cortex and hippocampus lysates; type: in vivo
Protocol: 4 μL of prepared cell or animal sample protein solutions were dotted for adsorption onto methanol-pre-activated PVDF membranes and then blocked with 5% non-fat dry milk in Tris-buffered saline and Tween 20 for 1 h. The samples were incubated overnight at 4 °C with anti-amyloid fibril primary antibody [mOC87] (Abcam, MA, USA), anti-amyloid oligomer A11 (Invitrogen, CA, USA) or purified anti-β-amyloid (1–16) antibody (clone 6E10) (Biolegend, CA, USA) (1:1000), followed by HRP-conjugated secondary antibody. Protein bands were detected using Super Signal Sensitive ECL Western Blotting Detection Reagent (Beyotime, Beijing, China) and observed using a gel imaging device (Amersham Imager 800, GE, Tokyo, Japan). All animal care and experimental procedures were performed in accordance with the “Institutional Animal Care and User Committee Guidelines” of the Macau University of Science and Technology. APP/PSEN1 (APP/PS1) mice (N000175) were purchased from the Nanjing Institute of Biomedical Sciences, Nanjing University, China, weighing 25 ± 5 g. The animals were housed in a temperature-controlled room with a 12 h light/dark cycle and given ad libitum food and water. Male mice were randomly divided into the following 6 experimental groups. […]

HT22 cells [3] = assay: ATP content measurement by LC-MS/MS; type: cell-based; conditions: Aβ aggregates with HYP 20, 40, 80 μM, 24 h
Protocol: HT22 cells were co-treated with Aβ aggregates and HYP (20–80 μM) for 24 h and washed with PBS. Each digested sample was re-suspended in 10 mL of ice-cold PBS, followed by centrifugation for 5 min (300 g, 4 °C). Cell pellets were then treated with 85% cold methanol (2 × 10^6 cells / 100 μL) containing 2 μM ATP-^13C10,^15N5, then vortexed for 1 min and placed on ice for 10 min. After centrifugation (13,000 g) at 4 °C for 15 min, the supernatant was transferred into another tube. The derivatization reaction was initiated by adding 75 μL of derivatization reagent MTBSTFA into 200 μL of cell lysis with 85% methanol and completed over 5 min with consistent vortex. Derivatization samples were then centrifuged (13,000 g) at 4 °C for 10 min, and 25 μL of the supernatant was injected into LC-MS/MS system for analysis.

APP/PS1 mice [4] = assay: Nissl staining of hippocampus; type: in vivo; conditions: hippocampus CA3 and DG, vs APP/PS1 control group
Protocol: All animal care and experimental procedures were performed in accordance with the “Institutional Animal Care and User Committee Guidelines” of the Macau University of Science and Technology. APP/PSEN1 (APP/PS1) mice (N000175) were purchased from the Nanjing Institute of Biomedical Sciences, Nanjing University, China, weighing 25 ± 5 g. The animals were housed in a temperature-controlled room with a 12 h light/dark cycle and given ad libitum food and water. Male mice were randomly divided into the following 6 experimental groups. (a) wild-type group (n = 6), (b) APP/PS1 group (n = 6), (c) HYP (20 mg/kg group) (n = 7), (d) HYP (40 mg/kg) group (n = 8), (e) HYP (80 mg/kg) group (n = 8) and (f) memantine (MEM) (10 mg/kg) positive control group (n = 8). HYP was dissolved in the solvent containing 10% DMSO, 40% PEG300 and 5% Tween-80 in PBS, and administrated via nasal injection for every 3 days with a volume of 0.5 μL/g of body weight for 8 consecutive weeks. The CA1, CA3 and DG regions of the mouse hippocampus was assessed by Nissl staining for Nissl body detection. Brain sections were dehydrated as the same as in HE staining, followed by 1% tar violet staining for 1 h, and with distilled water washing followed by 70% alcohol separation for 1 min. Tissues were then dehydrated in 70%, 80% and 90% of alcohol. […]

APP/PS1 mice [5] = assay: Western blot of APP/GFAP/APP-β/BACE1 in cortex and hippocampus lysates; type: in vivo
Protocol: (§1) After HYP treatment, the cells were lysed with RIPA. Protein concentrations were determined by Bio-Rad protein assay (Bio-Rad Laboratories, CA, USA). After electrophoretic separation, the gels were blotted and stained with primary antibodies. Binding of antibodies was visualized with peroxidase-coupled secondary antibodies using ECL Western Blotting detection reagents (Invitrogen, Scotland, UK). Band intensities were quantified using ImageJ software. Data were obtained from three independent experiments. All animal care and experimental procedures were performed in accordance with the “Institutional Animal Care and User Committee Guidelines” of the Macau University of Science and Technology. APP/PSEN1 (APP/PS1) mice (N000175) were purchased from the Nanjing Institute of Biomedical Sciences, Nanjing University, China, weighing 25 ± 5 g. The animals were housed in a temperature-controlled room with a 12 h light/dark cycle and given ad libitum food and water. Male mice were randomly divided into the following 6 experimental groups. (a) wild-type group (n = 6), (b) APP/PS1 group (n = 6), (c) HYP (20 mg/kg group) (n = 7), (d) HYP (40 mg/kg) group (n = 8), (e) HYP (80 mg/kg) group (n = 8) and (f) memantine (MEM) (10 mg/kg) positive control group (n = 8). […]

APP/PS1 mice [6] = assay: Western blot of Bcl-2, Bax and cyto-c in cortex and hippocampus lysates; type: in vivo; conditions: 8 weeks of HYP treatment vs APP/PS1 untreated group
Protocol: as §1

HT22 cells [7] = assay: Mitochondrial membrane potential by JC-1; type: cell-based
Text: The mitochondrial membrane potential of HT22 stained with 5,5′,6,6′-tetrachloro-1,1′,3,3′-tetraethylbenzimidazolyl cobalt iodide (JC-1) was observed by laser scanning confocal microscopy.

O=c1c(O[C@@H]2O[C@H](CO)[C@H](O)[C@H](O)[C@H]2O)c(-c2ccc(O)c(O)c2)oc2cc(O)cc(O)c12 [HYP, Quercetin-3-O-β-D-galactopyranoside]
dynamic Ca2+ level induced by Aβ (HT22 cells [1]; HT22 cells, Aβ 30 μM + HYP 20–80 μM, calcium-containing HBSS): decreased the level of Ca^2+ in a dose dependent manner | dynamic Ca2+ level induced by Aβ (HT22 cells [1]; HT22 cells, Aβ 30 μM + HYP 20–80 μM, calcium-free HBSS): downregulated the Aβ -induced level of Ca^2+ in a dose-dependent manner | dynamic Ca2+ level induced by Aβ (HT22 cells [1]; si-RyR2 HT22 cells, aggregated Aβ 30 μM + HYP 40 μM): restored the Aβ-induced dishomeostasis of Ca^2+ in si-RyR2 HT22 cells (Fig. 9H) to a lesser extent | level of oligomeric, fibrillar and total Aβ (dot blot) (APP/PS1 mice [2]): reduced the level of both oligomeric and fibrillar form of Aβ, without altering the level of total Aβ | ATP content (HT22 cells [3]): rescued the Aβ-induced decrease in mitochondrial ATP | density of neuronal cells (Nissl staining) (APP/PS1 mice [4]): density of neuronal cells in the CA3 and DG regions was higher | level of BACE1 and APP-β proteins (APP/PS1 mice [5]): reduced the level of APP hydrolysis pathway-associated proteins such as BACE1 and APP-β | level of Bax, cyto-c, Bcl-2 and Bax/Bcl-2 ratio (APP/PS1 mice [6]): a decrease in the level of both Bax and cyto-c, an increase in Bcl-2 expression, and a reduction in the Bax/Bcl-2 ratio | mitochondrial membrane potential (ratio of aggregated and monomeric JC-1) (HT22 cells [7]; Aβ aggregates + HYP 20–80 μM, 24 h): rescue the loss of mitochondrial membrane potential induced by Aβ aggregates in a dose-dependent manner | mitochondrial membrane potential (JC-1) (HT22 cells [7]; HYP alone): no effect
